# Like-named read-outs stand apart in the source and are kept apart here.
# How the values were obtained:
# [1] = format: in vitro ADME, human; settings: 5 μM, 37° C.; for Human Plasma Metabolite (%): metabolite (mesembrine) accumulated; for Human Plasma Prodrug (%): prodrug remaining
# Procedure: (§1) Each test was carried out in duplicate for each time point; 0 min, 15 min, 30 min, 60 min, 120, 240 min. […]
# [2] = format: in vitro ADME, mouse; settings: 5 μM, 37° C.; for Mouse Plasma Metabolite (%): metabolite (mesembrine) accumulated; for Mouse Plasma Prodrug (%): prodrug remaining
# Procedure: as §1
# [3] = Hydrolysis Assay - Condition 1 (SGF); format: physicochemical; settings: SGF with pepsin pH 1.5, 37° C., 0.5 mM
# Procedure: 50 μL of compound (10 mM) in DMSO was diluted into 950 μL of Simulated Gastric Fluid (SGF) with pepsin (pH 1.5) to a final concentration of 0.5 mM. The hydrolysis kinetics were conducted at 37° C. and measured by LCMS at a certain time interval.
# (§2) The corresponding LCMS chromatogram were recorded and the conversions were calculated by integration of each peak.
# (§3) • 1) LCMS spectra were obtained using Agilent 1200G1956A or SHIMADZU LCMS-2020. Standard LCMS conditions were as follows (running time 1.55 minutes): • Acidic condition: Mobile Phase A: 0.0375% TFA in water (v/v). Mobile Phase B: 0.01875% TFA in acetonitrile (v/v); Column: Kinetex EVO C18 30*2.1 mm, 5 μm. • Basic condition: Mobile Phase A: 0.025% NH3·H2O in water (v/v). Mobile Phase B: Acetonitrile; Column: Kinetex EVO C18 2.1×30 mm, 5 μm. • 2) Conversion (%)=peak area 1/(peak area 1+peak area 2)*100%, peak area 1 is the integration of hydrolyzed product, peak area 2 is the integration of starting material.
# [4] = Hydrolysis Assay - Condition 2 (DI Water); format: physicochemical; settings: 25° C., 0.5 mM
# Procedure: 50 μL of compound (10 mM) in DMSO was diluted into 950 μL of DI water to a final concentration of 0.5 mM. The hydrolysis kinetics were conducted at 25° C. and measured by LCMS at a certain time interval.
# as §2, §3
# [5] = Plasma Stability Assay (Example A3), human plasma; format: in vitro ADME; settings: prodrug remaining, 10 μM, 37° C.
# Text: (§4) The data is represented in the table below.
# [6] = Plasma Stability Assay (Example A3), rat plasma; format: in vitro ADME; settings: prodrug remaining, 10 μM, 37° C.
# Text: as §4
SMILES,Human Plasma Prodrug (%) ([1]; 0 min),Human Plasma Prodrug (%) ([1]; 15 min),Human Plasma Prodrug (%) ([1]; 30 min),Human Plasma Prodrug (%) ([1]; 60 min),Human Plasma Prodrug (%) ([1]; 120 min),Human Plasma Prodrug (%) ([1]; 240 min),Mouse Plasma Prodrug (%) ([2]; 0 min),Mouse Plasma Prodrug (%) ([2]; 15 min),Mouse Plasma Prodrug (%) ([2]; 30 min),Mouse Plasma Prodrug (%) ([2]; 60 min),Mouse Plasma Prodrug (%) ([2]; 120 min),Mouse Plasma Prodrug (%) ([2]; 240 min),Condition 1 Conversion (%) ([3]; 1 min),Condition 1 Conversion (%) ([3]; 5 min),Condition 1 Conversion (%) ([3]; 30 min),Condition 1 Conversion (%) ([3]; 1 h),Condition 1 Conversion (%) ([3]; 4 h),Condition 1 Conversion (%) ([3]; 24 h),Condition 2 Conversion (%) ([4]; 1 min),Condition 2 Conversion (%) ([4]; 5 min),also measured
"COc1ccc([C@@]23CCC(OP(=O)(Oc4ccccc4)Oc4ccccc4)=C[C@@H]2N(C)CC3)cc1OC [Compound 320, [(3aS,7aS)-3a-(3,4-dimethoxyphenyl)-1-methyl-3,4,5,7a-tetrahydro-2H-indol-6-yl]diphenyl phosphate]",100%,95.7%,98.5%,95.7%,98.2%,95.3%,100%,58.5%,46.5%,30.7%,19.4%,11.7%,,,,,,,,,Human Plasma Metabolite (%) ([1]; 0 min): 7.6%; Human Plasma Metabolite (%) ([1]; 15 min): 8.0%; Human Plasma Metabolite (%) ([1]; 30 min): 8.5%; Human Plasma Metabolite (%) ([1]; 60 min): 8.6%; Human Plasma Metabolite (%) ([1]; 120 min): 9.4%; Human Plasma Metabolite (%) ([1]; 240 min): 10.4%; Mouse Plasma Metabolite (%) ([2]; 0 min): 11.8%; Mouse Plasma Metabolite (%) ([2]; 15 min): 15.9%; Mouse Plasma Metabolite (%) ([2]; 30 min): 16.9%; Mouse Plasma Metabolite (%) ([2]; 60 min): 18.6%; Mouse Plasma Metabolite (%) ([2]; 120 min): 19.1%; Mouse Plasma Metabolite (%) ([2]; 240 min): 18.9%
"COc1ccc([C@@]23CCC(OC(=O)N(C)C)=C[C@@H]2N(C)CC3)cc1OC [Compound 324, [(3aS,7aS)-3a-(3,4-dimethoxyphenyl)-1-methyl-3,4,5,7a-tetrahydro-2H-indol-6-yl] N,N-dimethylcarbamate]",100.0%,98.2%,98.7%,>99%,>99%,96.5%,100.0%,97.4%,94.4%,94.9%,92.6%,88.9%,0%,0%,0%,0%,0%,0%,0%,0%,Condition 2 Conversion (%) ([4]; 30 min): 0%; Condition 2 Conversion (%) ([4]; 1 h): 0%; Condition 2 Conversion (%) ([4]; 4 h): 0%; Condition 2 Conversion (%) ([4]; 24 h): 0%
"CCN(C)C(=O)OC1=C[C@@H]2N(C)CC[C@]2(c2ccc(OC)c(OC)c2)CC1 [Compound 326, [(3aS,7aS)-3a-(3,4-dimethoxyphenyl)-1-methyl-3,4,5,7a-tetrahydro-2H-indol-6-yl] N-ethyl-N-methyl-carbamate]",100.0%,98.2%,99.9%,98.4%,>99%,93.9%,100.0%,>99%,96.6%,>99%,>99%,98.5%,0%,0%,0%,0%,0%,0%,0%,0%,Condition 2 Conversion (%) ([4]; 30 min): 0%; Condition 2 Conversion (%) ([4]; 1 h): 0%; Condition 2 Conversion (%) ([4]; 4 h): 0%; Condition 2 Conversion (%) ([4]; 24 h): 0%
"COc1ccc([C@@]23CCC(OC(=O)N4CCN(C)CC4)=C[C@@H]2N(C)CC3)cc1OC [Compound 327, [(3aS,7aS)-3a-(3,4-dimethoxyphenyl)-1-methyl-3,4,5,7a-tetrahydro-2H-indol-6-yl]4-methylpiperazine-1-carboxylate]",100%,>99%,98.9%,>99%,>99%,94.4%,100%,>99%,>99%,>99%,>99%,>99%,0%,0%,0%,0%,0%,0%,0%,0%,Condition 2 Conversion (%) ([4]; 30 min): 0%; Condition 2 Conversion (%) ([4]; 1 h): 0%; Condition 2 Conversion (%) ([4]; 4 h): 0%; Condition 2 Conversion (%) ([4]; 24 h): 0%
"COc1ccc([C@@]23CCC(OP(=O)(O)O)=C[C@@H]2N(C)CC3)cc1OC [Compound 359, [(3aS,7aS)-3a-(3,4-dimethoxyphenyl)-1-methyl-3,4,5,7a-tetrahydro-2H-indol-6-yl] dihydrogen phosphate]",100%,69.0%,65.1%,50.4%,32.8%,25.6%,100%,>99%,82.7%,79.0%,50.7%,59.1%,,,,,,,,,Human Plasma Metabolite (%) ([1]; 0 min): 0.0%; Human Plasma Metabolite (%) ([1]; 15 min): 0.0%; Human Plasma Metabolite (%) ([1]; 30 min): 0.0%; Human Plasma Metabolite (%) ([1]; 60 min): 0.0%; Human Plasma Metabolite (%) ([1]; 120 min): 15.7%; Human Plasma Metabolite (%) ([1]; 240 min): 23.0%; Mouse Plasma Metabolite (%) ([2]; 0 min): 0.0%; Mouse Plasma Metabolite (%) ([2]; 15 min): 0.0%; Mouse Plasma Metabolite (%) ([2]; 30 min): 0.0%; Mouse Plasma Metabolite (%) ([2]; 60 min): 0.0%; Mouse Plasma Metabolite (%) ([2]; 120 min): 0.0%; Mouse Plasma Metabolite (%) ([2]; 240 min): 0.0%
"COc1ccc([C@@]23CCC(OP(=O)(O)OCOC(=O)OC(C)C)=C[C@@H]2N(C)CC3)cc1OC [Compound 410, [[(3aS,7aS)-3a-(3,4-dimethoxyphenyl)-1-methyl-3,4,5,7a-tetrahydro-2H-indol-6-yl]oxy-hydroxy-phosphoryl]oxymethyl isopropyl carbonate]",,,,,,,,,,,,,,,,,,,,,Human Plasma Prodrug (%) ([5]; 0 min): 100.0%; Human Plasma Prodrug (%) ([5]; 10 min): 96.3%; Human Plasma Prodrug (%) ([5]; 30 min): 98.8%; Human Plasma Prodrug (%) ([5]; 60 min): 92.7%; Human Plasma Prodrug (%) ([5]; 120 min): 88.2%; Human Plasma Prodrug (%) ([5]; 240 min): 75.5%; Rat Plasma Prodrug (%) ([6]; 0 min): 100.0%; Rat Plasma Prodrug (%) ([6]; 10 min): 63.0%; Rat Plasma Prodrug (%) ([6]; 30 min): 25.4%; Rat Plasma Prodrug (%) ([6]; 60 min): 7.1%; Rat Plasma Prodrug (%) ([6]; 120 min): 0.52%; Rat Plasma Prodrug (%) ([6]; 240 min): 0.01%
